Our source for the Kd values is ChEMBL document CHEMBL3991601, “The target landscape of clinical kinase drugs” (Science, 2017).

The structures appear in SMILES notation. Active and inactive are the calls of the source. Some results are limits rather than exact numbers.

In experiment [1] the target is T1, Cyclin-dependent kinase-like 5 (Homo sapiens, UniProt O76039).
T1 sequence (O76039 whole entry): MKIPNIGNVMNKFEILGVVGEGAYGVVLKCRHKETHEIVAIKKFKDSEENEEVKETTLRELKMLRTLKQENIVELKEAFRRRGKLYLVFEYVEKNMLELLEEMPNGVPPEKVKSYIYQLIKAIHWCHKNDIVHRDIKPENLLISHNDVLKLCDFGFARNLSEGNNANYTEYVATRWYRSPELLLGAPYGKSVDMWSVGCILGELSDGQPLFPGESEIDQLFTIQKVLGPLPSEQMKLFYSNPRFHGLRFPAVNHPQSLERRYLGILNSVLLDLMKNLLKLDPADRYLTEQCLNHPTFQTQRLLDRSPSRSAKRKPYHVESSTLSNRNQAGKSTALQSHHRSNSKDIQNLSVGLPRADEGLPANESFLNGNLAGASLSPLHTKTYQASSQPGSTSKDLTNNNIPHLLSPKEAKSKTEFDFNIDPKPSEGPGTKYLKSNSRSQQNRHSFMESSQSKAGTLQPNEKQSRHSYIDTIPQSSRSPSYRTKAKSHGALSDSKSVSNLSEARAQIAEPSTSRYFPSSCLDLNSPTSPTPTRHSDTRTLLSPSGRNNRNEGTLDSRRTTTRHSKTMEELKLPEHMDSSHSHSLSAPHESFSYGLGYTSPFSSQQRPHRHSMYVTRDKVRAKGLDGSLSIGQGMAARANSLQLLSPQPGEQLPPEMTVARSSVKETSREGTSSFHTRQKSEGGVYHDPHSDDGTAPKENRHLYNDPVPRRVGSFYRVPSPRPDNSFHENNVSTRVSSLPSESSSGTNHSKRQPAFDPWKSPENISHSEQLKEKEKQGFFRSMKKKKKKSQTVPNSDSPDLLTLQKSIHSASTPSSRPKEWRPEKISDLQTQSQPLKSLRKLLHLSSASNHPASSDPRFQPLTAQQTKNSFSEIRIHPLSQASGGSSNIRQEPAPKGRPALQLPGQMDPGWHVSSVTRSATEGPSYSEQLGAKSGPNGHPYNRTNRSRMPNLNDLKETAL

The target in experiment [2] is Mast/stem cell growth factor receptor Kit (Homo sapiens, UniProt P10721).
The target in experiment [3] is Dual specificity tyrosine-phosphorylation-regulated kinase 1B (Homo sapiens, UniProt Q9Y463).
Experiment [4] deals with Dual specificity protein kinase CLK4 (Homo sapiens, UniProt Q9HAZ1).
Experiment [5] deals with Eukaryotic peptide chain release factor GTP-binding subunit ERF3B (Homo sapiens, UniProt Q8IYD1).
Experiment [6] addresses Serine/threonine-protein kinase 38 (Homo sapiens, UniProt Q15208).
Experiment [7] addresses Cyclin-dependent kinase 18 (Homo sapiens, UniProt Q07002).
Experiment [8] deals with Serine/threonine-protein kinase 24 (Homo sapiens, UniProt Q9Y6E0).
Experiment [9] addresses Nucleoside diphosphate kinase B (Homo sapiens, UniProt P22392).
The target in experiment [10] is Cell division cycle 7-related protein kinase (Homo sapiens, UniProt O00311).
Experiment [11] has as its target Tyrosine-protein kinase Fgr (Homo sapiens, UniProt P09769).
Experiment [12] deals with MAP kinase-activated protein kinase 3 (Homo sapiens, UniProt Q16644).
Experiment [13] deals with Tyrosine-protein kinase JAK2 (Homo sapiens, UniProt O60674).
Experiment [14] addresses Activin receptor type-1-like (Homo sapiens, UniProt P37023).
Experiment [15] addresses ALK tyrosine kinase receptor (Homo sapiens, UniProt Q9UM73). The class given is subcellular, K-562, COLO 205, SK-N-BE(2) and MV-4-11, Cell lysate. As to conditions: read-out: Kd apparent.
Experiment [16] addresses T2, Isoleucine--tRNA ligase, mitochondrial (Homo sapiens, UniProt Q9NSE4).
T2 sequence (Q9NSE4 whole entry): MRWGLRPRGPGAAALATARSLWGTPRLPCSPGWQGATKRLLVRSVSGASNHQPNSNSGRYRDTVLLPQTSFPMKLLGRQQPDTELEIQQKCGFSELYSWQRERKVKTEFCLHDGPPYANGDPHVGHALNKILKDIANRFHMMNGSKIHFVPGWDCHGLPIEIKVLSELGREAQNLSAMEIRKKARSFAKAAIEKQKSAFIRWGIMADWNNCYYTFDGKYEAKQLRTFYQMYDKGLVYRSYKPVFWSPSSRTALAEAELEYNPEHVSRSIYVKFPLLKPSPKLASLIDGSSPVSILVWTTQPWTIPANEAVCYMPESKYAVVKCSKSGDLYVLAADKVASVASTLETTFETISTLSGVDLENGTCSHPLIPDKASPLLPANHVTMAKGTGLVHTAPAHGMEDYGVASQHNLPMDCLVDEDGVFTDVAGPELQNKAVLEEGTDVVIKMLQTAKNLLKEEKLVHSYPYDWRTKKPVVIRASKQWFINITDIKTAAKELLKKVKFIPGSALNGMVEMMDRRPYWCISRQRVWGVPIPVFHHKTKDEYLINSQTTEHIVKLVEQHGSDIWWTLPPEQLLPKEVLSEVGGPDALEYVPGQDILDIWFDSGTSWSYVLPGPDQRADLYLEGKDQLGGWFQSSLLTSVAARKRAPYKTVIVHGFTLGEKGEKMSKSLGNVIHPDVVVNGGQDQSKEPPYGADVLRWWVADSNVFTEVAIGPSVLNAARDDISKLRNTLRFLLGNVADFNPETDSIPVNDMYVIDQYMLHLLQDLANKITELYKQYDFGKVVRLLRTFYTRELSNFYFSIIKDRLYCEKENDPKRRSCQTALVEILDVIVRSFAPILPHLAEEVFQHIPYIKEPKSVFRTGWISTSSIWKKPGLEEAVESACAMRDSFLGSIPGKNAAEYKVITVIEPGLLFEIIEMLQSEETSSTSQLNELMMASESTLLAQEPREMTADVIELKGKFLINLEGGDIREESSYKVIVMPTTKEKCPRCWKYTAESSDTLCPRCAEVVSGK

Experiment [17] concerns the target Ras-related C3 botulinum toxin substrate 1 (Homo sapiens, UniProt P63000).
For experiment [18], the target named is Cyclin-dependent kinase 10 (Homo sapiens, UniProt Q15131).
Experiment [19] addresses Cyclin-dependent kinase 9 (Homo sapiens, UniProt P50750).
Also: in the data inactive means no Kd found up to 30 µM.

Chain of Eukaryotic peptide chain release factor GTP-binding subunit ERF3B (Q8IYD1 whole entry): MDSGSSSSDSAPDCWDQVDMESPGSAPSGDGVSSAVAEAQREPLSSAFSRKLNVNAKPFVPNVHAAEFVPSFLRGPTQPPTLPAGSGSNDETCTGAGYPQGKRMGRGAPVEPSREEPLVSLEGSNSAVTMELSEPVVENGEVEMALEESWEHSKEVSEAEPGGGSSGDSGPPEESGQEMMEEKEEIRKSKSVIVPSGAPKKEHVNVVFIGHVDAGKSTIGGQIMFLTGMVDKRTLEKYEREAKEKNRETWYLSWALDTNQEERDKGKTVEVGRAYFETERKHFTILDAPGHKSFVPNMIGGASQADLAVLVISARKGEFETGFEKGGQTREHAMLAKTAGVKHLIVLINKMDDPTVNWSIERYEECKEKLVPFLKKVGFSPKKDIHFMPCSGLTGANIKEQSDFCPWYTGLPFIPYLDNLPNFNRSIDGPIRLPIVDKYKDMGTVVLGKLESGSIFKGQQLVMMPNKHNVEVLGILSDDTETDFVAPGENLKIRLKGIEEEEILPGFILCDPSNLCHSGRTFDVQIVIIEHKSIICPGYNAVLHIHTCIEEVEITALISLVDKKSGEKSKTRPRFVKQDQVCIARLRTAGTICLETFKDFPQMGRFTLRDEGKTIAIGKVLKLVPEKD
Chain of Nucleoside diphosphate kinase B (P22392 whole entry): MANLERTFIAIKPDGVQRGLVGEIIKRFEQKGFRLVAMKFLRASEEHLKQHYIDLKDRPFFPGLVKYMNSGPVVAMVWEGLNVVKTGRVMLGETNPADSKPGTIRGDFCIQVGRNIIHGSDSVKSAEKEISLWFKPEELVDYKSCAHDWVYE
Chain of Tyrosine-protein kinase JAK2 (O60674 whole entry): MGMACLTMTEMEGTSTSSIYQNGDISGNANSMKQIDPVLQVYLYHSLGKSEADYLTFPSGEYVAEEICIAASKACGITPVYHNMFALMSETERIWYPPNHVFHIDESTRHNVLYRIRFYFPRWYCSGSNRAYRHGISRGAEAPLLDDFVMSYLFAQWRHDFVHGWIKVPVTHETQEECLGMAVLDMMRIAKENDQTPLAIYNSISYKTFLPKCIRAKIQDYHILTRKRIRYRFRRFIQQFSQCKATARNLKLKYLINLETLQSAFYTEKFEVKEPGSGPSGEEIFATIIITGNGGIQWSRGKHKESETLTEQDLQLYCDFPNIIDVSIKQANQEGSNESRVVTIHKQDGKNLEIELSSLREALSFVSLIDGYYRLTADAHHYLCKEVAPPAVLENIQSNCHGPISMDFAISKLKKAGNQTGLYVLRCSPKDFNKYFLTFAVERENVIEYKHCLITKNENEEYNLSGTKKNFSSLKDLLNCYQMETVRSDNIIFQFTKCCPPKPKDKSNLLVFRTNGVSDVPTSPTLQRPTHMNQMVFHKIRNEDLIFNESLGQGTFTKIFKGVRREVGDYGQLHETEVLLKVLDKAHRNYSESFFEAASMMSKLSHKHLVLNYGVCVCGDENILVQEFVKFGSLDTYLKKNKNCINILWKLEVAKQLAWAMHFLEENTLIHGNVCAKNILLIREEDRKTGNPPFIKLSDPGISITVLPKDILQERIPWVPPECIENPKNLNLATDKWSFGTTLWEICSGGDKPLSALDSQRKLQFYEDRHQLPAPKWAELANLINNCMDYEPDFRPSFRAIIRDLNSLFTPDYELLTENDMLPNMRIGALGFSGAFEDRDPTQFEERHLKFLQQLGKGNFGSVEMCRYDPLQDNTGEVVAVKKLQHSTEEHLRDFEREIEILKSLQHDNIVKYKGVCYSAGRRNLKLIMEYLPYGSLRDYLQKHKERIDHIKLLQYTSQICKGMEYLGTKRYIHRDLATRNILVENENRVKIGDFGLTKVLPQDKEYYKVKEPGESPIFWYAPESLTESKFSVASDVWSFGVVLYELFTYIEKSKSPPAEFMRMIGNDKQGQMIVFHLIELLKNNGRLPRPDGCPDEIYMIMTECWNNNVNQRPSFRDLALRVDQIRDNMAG
Chain of Cyclin-dependent kinase 10 (Q15131 whole entry): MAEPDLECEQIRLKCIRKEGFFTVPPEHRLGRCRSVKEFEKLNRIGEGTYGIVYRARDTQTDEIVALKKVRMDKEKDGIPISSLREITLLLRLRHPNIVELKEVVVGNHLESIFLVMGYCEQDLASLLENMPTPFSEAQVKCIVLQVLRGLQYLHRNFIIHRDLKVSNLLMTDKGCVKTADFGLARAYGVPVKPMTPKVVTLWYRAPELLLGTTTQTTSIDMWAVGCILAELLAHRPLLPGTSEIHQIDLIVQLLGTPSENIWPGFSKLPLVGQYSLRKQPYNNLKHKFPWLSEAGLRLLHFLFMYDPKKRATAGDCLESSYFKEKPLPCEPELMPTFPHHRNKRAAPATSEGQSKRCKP
Chain of Tyrosine-protein kinase Fgr (P09769 whole entry): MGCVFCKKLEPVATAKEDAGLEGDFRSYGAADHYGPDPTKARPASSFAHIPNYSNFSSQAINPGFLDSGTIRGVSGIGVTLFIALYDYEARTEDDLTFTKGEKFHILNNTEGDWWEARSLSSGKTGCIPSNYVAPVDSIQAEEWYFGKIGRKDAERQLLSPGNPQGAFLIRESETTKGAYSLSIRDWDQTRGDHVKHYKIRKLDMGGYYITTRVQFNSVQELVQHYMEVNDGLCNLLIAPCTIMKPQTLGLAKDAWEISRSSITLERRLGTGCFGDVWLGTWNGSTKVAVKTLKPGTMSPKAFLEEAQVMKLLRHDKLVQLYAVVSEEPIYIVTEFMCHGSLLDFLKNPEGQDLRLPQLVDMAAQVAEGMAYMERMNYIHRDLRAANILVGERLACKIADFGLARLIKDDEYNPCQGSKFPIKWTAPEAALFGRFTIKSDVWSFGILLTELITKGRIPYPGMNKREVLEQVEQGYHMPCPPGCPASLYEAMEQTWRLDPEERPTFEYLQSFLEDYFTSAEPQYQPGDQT
Chain of Dual specificity protein kinase CLK4 (Q9HAZ1 whole entry): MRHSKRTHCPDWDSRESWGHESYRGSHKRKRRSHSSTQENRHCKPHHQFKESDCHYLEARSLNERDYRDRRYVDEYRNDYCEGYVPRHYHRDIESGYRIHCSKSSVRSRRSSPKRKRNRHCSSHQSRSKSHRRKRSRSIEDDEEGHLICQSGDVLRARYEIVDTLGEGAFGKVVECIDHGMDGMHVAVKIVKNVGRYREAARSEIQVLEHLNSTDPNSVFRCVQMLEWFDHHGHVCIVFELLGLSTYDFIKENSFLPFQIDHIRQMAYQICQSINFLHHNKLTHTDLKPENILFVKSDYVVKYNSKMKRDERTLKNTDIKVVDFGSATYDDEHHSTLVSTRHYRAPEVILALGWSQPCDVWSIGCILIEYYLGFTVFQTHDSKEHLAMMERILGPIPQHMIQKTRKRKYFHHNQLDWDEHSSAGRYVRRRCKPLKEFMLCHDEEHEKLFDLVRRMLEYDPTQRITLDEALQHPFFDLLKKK
Chain of MAP kinase-activated protein kinase 3 (Q16644 whole entry): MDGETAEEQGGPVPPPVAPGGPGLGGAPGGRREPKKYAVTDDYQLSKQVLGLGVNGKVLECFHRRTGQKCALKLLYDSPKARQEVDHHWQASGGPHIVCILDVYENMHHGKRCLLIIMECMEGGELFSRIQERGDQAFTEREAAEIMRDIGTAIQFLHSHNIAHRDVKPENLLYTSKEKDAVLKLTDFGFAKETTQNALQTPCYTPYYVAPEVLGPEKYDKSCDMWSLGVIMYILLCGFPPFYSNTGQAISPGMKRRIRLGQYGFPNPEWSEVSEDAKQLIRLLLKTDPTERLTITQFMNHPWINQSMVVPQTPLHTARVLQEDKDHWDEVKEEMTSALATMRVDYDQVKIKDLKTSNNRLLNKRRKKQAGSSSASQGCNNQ
Chain of Dual specificity tyrosine-phosphorylation-regulated kinase 1B (Q9Y463 whole entry): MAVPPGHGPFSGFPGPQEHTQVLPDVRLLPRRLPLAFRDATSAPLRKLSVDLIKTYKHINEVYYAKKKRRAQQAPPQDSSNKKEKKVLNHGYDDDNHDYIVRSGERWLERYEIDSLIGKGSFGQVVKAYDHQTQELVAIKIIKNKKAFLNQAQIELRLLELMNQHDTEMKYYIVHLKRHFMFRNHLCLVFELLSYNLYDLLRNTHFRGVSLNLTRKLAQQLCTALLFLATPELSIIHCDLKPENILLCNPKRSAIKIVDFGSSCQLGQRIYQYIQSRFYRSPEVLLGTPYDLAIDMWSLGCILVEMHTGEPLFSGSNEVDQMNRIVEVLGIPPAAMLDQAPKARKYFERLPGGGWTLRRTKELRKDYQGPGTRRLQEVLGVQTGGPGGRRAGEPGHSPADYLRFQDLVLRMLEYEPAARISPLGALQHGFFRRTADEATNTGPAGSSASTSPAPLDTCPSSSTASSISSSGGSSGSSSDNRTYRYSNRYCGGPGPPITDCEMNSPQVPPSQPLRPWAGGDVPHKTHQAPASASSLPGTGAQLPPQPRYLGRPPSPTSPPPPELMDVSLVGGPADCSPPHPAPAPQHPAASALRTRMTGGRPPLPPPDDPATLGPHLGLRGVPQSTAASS
Chain of Cyclin-dependent kinase 18 (Q07002 whole entry): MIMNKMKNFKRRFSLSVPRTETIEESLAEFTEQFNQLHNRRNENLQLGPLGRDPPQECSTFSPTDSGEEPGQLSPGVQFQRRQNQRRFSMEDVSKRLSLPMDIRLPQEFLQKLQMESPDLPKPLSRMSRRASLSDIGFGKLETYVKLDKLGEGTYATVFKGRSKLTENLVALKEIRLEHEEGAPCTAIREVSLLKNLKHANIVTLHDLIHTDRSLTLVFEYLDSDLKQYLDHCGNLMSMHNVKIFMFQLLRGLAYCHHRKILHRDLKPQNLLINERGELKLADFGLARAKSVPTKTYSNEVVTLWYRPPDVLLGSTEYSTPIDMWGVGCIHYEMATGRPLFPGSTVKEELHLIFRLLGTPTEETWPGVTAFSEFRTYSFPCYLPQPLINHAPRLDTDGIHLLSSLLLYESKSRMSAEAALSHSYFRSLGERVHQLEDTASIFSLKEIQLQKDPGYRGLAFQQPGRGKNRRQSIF

Take `COc1c(OCCCN2CCOCC2)ccc2c1N=C(NC(=O)c1cnc(N)nc1)N1CCN=C21` [COPANLISIB]: the Kd in experiment [1], in [2], in [3], in experiment [4], in experiment [5] and in experiment [6] was > 30 µM (inactive) in each case. The Kd in experiment [7] and in [8] was > 30 µM (inactive) in each case.
`C#Cc1cccc(Nc2ncnc3cc(OC)c(OCCCCCCC(=O)NO)cc23)c1` [CUDC-101]: the Kd was 0.142 µM (active) in [9]; > 30 µM (inactive) in [10]; > 30 µM (inactive) in experiment [1]; > 30 µM (inactive) in experiment [4]; > 30 µM (inactive) in [11]; > 30 µM (inactive) in experiment [12]. Moreover, the Kd in [13] and in [14] was > 30 µM (inactive) in each case.
For `CN(C[C@@H]1COCCO1)S(=O)(=O)Nc1ccc2ccc3ncc(-c4cnn(C)c4)cc3c(=O)c2c1` [MK-2461], the Kd in experiment [10], in [15], in experiment [6], in experiment [7], in experiment [16] and in experiment [8] was > 30 µM (inactive) throughout.
For `COc1ncc(-c2ccc3nccc(-c4ccnnc4)c3c2)cc1NS(=O)(=O)c1ccc(F)cc1F` [OMIPALISIB], the Kd in experiment [9], in [10], in experiment [2], in experiment [4], in experiment [15] and in experiment [12] was > 30 µM (inactive) in each case. Further, the Kd in experiment [6], in [16] and in [8] was > 30 µM (inactive) each time.
As to `CCCCCCCCCCCCCCCCCCOP(=O)([O-])OC1CC[N+](C)(C)CC1` [PERIFOSINE], the Kd in experiment [17] and in [16] was > 30 µM (inactive) each time.
Consider `Cc1nc(Nc2n[nH]c3c2CN(C(=O)N[C@H](CN(C)C)c2ccccc2)C3(C)C)c2sccc2n1` [PF-03758309], for which the Kd in experiment [10] was > 30 µM (inactive); in experiment [1], 1.93 µM (active); in [4], 0.013 µM (active); in [6], 0.075 µM; in [7], 0.067 µM (active); in [16], > 30 µM (inactive). Besides, the Kd in experiment [18] was > 30 µM (inactive).
For the compound `CO[C@H]1C[C@@H]2CC[C@@H](C)[C@@](O)(O2)C(=O)C(=O)N2CCCC[C@H]2C(=O)O[C@H]([C@H](C)C[C@@H]2CC[C@@H](OP(C)(C)=O)[C@H](OC)C2)CC(=O)[C@H](C)/C=C(\C)[C@@H](O)[C@@H](OC)C(=O)[C@H](C)C[C@H](C)/C=C/C=C/C=C/1C` [RIDAFOROLIMUS], the Kd was > 30 µM (inactive) in experiment [10]; > 30 µM (inactive) in [1]; 1.26 µM in [3]; > 30 µM (inactive) in [4]; > 30 µM (inactive) in experiment [19]; > 30 µM (inactive) in experiment [5]. The Kd in experiment [13], in experiment [18] and in experiment [8] was > 30 µM (inactive) each time.
As for `O=c1[nH]ccc2cc(OC3CCNCC3)ccc12` [SAR-407899 FREE BASE], the Kd in experiment [1], in experiment [2], in experiment [4], in [5], in [6] and in experiment [16] was > 30 µM (inactive) in each case. Moreover, the Kd in [8] is > 30 µM (inactive).
With `CN1CCN(CCOc2cc(OC3CCOCC3)c3c(Nc4c(Cl)ccc5c4OCO5)ncnc3c2)CC1` [SARACATINIB], the Kd in experiment [9], in experiment [13], in experiment [18] and in experiment [8] was > 30 µM (inactive) in each case.
For the compound `CO[C@H]1C[C@@H]2CC[C@@H](C)[C@@](O)(O2)C(=O)C(=O)N2CCCC[C@H]2C(=O)O[C@H]([C@H](C)C[C@@H]2CC[C@@H](O)[C@H](OC)C2)CC(=O)[C@H](C)/C=C(\C)[C@@H](O)[C@@H](OC)C(=O)[C@H](C)C[C@H](C)/C=C/C=C/C=C/1C` [SIROLIMUS], the Kd in experiment [10], in experiment [1], in [3], in experiment [4], in experiment [11] and in experiment [19] was > 30 µM (inactive) throughout. For the same compound, the Kd in experiment [13], in experiment [7], in experiment [14], in experiment [16] and in experiment [8] was > 30 µM (inactive) each time.
As for `CO[C@H]1C[C@@H]2CC[C@@H](C)[C@@](O)(O2)C(=O)C(=O)N2CCCC[C@H]2C(=O)O[C@H]([C@H](C)C[C@@H]2CC[C@@H](OC(=O)C(C)(CO)CO)[C@H](OC)C2)CC(=O)[C@H](C)/C=C(\C)[C@@H](O)[C@@H](OC)C(=O)[C@H](C)C[C@H](C)/C=C/C=C/C=C/1C` [TEMSIROLIMUS], the Kd in [10], in experiment [1], in experiment [4], in experiment [11], in [19] and in experiment [15] was > 30 µM (inactive) in each case. In addition, the Kd in experiment [5], in experiment [12], in [13], in [16], in experiment [18] and in experiment [8] was > 30 µM (inactive) each time.
On to `C[C@@H](N)c1ccc(C(=O)Nc2ccnc3[nH]ccc23)cc1` [Y-39983], for which the Kd in [10], in experiment [1], in [2], in [4], in experiment [12] and in experiment [6] was > 30 µM (inactive) each time. Moreover, the Kd in experiment [16] and in [8] was > 30 µM (inactive) each time.
